Data from PubChem BioAssay (NCI).
Where “and” joins values, the source holds several entries; their conditions need not be identical. Equal values may be shown once.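 Five concentrations, 48 hours, 96-well plates. GI50 marks 50% less growth. At the TGI there is no net growth.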

What was measured:
Assay in all cases: DTP human tumour cell line panel, 48 h
A549 NSCLC = test system: A549 NSCLC
HCT-116 colon = test system: HCT-116 colon
HOP-92 NSCLC = test system: HOP-92 NSCLC
IGROV1 ovarian = test system: IGROV1 ovarian
NCI/ADR-RES ovarian = test system: NCI/ADR-RES ovarian
OVCAR-5 ovarian = test system: OVCAR-5 ovarian
PC-3 prostate = test system: PC-3 prostate
SF-539 CNS = test system: SF-539 CNS
SK-MEL-28 melanoma = test system: SK-MEL-28 melanoma
SK-OV-3 ovarian = test system: SK-OV-3 ovarian

Structure (SMILES)	GI50 (A549 NSCLC) [µM]	TGI (A549 NSCLC) [µM]	GI50 (HCT-116 colon) [µM]	TGI (HCT-116 colon) [µM]	GI50 (HOP-92 NSCLC)	TGI (HOP-92 NSCLC) [µM]	GI50 (IGROV1 ovarian) [µM]	TGI (IGROV1 ovarian) [µM]	GI50 (NCI/ADR-RES ovarian) [µM]	TGI (NCI/ADR-RES ovarian) [µM]	GI50 (OVCAR-5 ovarian) [µM]	TGI (OVCAR-5 ovarian) [µM]	GI50 (PC-3 prostate) [µM]	TGI (PC-3 prostate) [µM]	GI50 (SF-539 CNS) [µM]	TGI (SF-539 CNS) [µM]	GI50 (SK-MEL-28 melanoma) [µM]	TGI (SK-MEL-28 melanoma) [µM]	GI50 (SK-OV-3 ovarian) [µM]	TGI (SK-OV-3 ovarian) [µM]
O=Cc1c(-c2cc(O)ccc2O)nc2sccn12	25.7	> 100	14	27.3	10.7 µM	27.3	9.04	29.5	16	48.5	23.1	74.4	11.9	38.3	20.3	52	23.8	96.6	78.5	> 100
COc1ccccc1-[n+]1cc(-c2ccc(-c3ccccc3)cc2)n2c1CCCCC2	0.51	16.7	0.231	11.9	0.184 µM	1.97	0.617	13.5	19.8	60.4	0.668	16.6	0.228	8.95	0.348	13.2	0.384	11.2	0.368	5.82
COP(=O)(OC)C(NC(c1ccccc1)c1ccccc1)c1ccc2c(c1)OCO2 (stereo unspecified)	27.3	> 100	16.3	35.3	12 µM	26.3	22	73.6	30.3	> 100	54.6	> 100	16.4	66.3	20.2	36	21.5	44.8	40.7	> 100
O=c1c2ccccc2c2ccccc2c(=O)n1-c1cc2c3ccccc3ccc2c2ccccc12	–	> 100	–	> 100	–	> 100	–	> 100	–	> 100	–	> 100	–	> 100	–	> 100	–	> 100	–	> 100
Nc1ccc2c(SCCSc3c4ccccc4nc4cc(N)ccc34)c3ccccc3nc2c1	–	> 100	–	> 100	–	> 100	–	> 100	–	> 100	–	> 100	–	> 100	–	> 100	–	> 100	–	> 100
c1ccc(Cc2nc3ccc(Nc4ncnc5ccccc45)cc3[nH]2)cc1	> 25	> 25	> 25	> 25	9.26 µM	> 25	16.2	> 25	> 25	> 25	17.8	> 25	> 25	> 25	> 25	> 25	> 25	> 25	7.03	> 25
COc1cc2oc(=O)ccc2cc1C1OC(=O)C2OC21C (stereo unspecified)	–	> 100	–	> 100	–	> 100	–	> 100	–	> 100	–	> 100	–	> 100	–	> 100	–	> 100	–	> 100
CSc1nc2c(c(=O)[nH]1)N=C1c3ccccc3C(=O)C1C(c1ccc(F)cc1)N2 (stereo unspecified)	12.6	> 100	7.23	19.9	9.52 µM	48.8	11.3	> 100	6.42	33.1	17.7	41.1	7.72	95.2	8.9	29.4	9.03	62.4	14.1	50.4
O=C(O)C(=Cc1ccnc2ccccc12)C(=O)O	–	> 100	–	> 100	–	> 100	–	> 100	–	> 100	–	> 100	–	> 100	–	> 100	–	> 100	–	> 100
Cc1ccc2c(c1)nc(C(=O)c1ccco1)c(C(F)(F)F)[n+]2[O-]	> 100	> 100	> 100	> 100	40.1 µM	> 100	48	> 100	57	> 100	> 100	> 100	50.2	> 100	> 100	> 100	> 100	> 100	> 100	> 100
COCCn1cc(-c2csc(-c3c[nH]c4ccccc34)n2)c2cccnc21	7.1	> 100	3.63	> 100	14.9 µM	> 100	2.53	> 100	1.76	6.9	28.2	> 100	6.81	> 100	5.91	> 100	8.18	> 100	14.8	> 100
CC(C)(C)N1CCC1C(N)=O (stereo unspecified)	> 100	> 100	> 100	> 100	> 100 µM	> 100	> 100	> 100	> 100	> 100	> 100	> 100	> 100	> 100	> 100	> 100	> 100	> 100	> 100	> 100
CC(=O)Nc1ccc(/C=C/[N+](=O)[O-])cc1	–	17.6	–	6.07	–	17.4	–	7.35	–	31.3	–	9.25	–	16.7	–	6.35	–	4.13	–	24.1
Nc1ccccc1C#C/C=C\C#Cc1ccccc1C(F)(F)F	0.722	15.5	0.432	> 35.4	21.5 µM	48	1.34	> 55.8	0.302	2.89	1.15	10.8	4.41	45.1	0.669	3.55	18.2	> 100	0.888	24.7
O=C(/C=C/c1cccnc1)NCCCCC1CCN(C(=O)c2ccccc2)CC1	0.166	> 100	< 0.01	> 100	26.8 µM and > 32 µM	> 100	> 47.3	> 100	< 0.0135	> 100	27.7	> 100	< 0.01	> 100	< 0.01	> 100	> 100	> 100	> 100	> 100
CCN(Cc1cccc(OC)c1)c1ccc(CO)c(Cl)c1	2.06	27.7	0.0731	11.2	2.11 µM	20.5	0.078	0.833	13.7	43.4	0.157	0.606	19.8	74.3	19	40.5	14.7	35.8	8.52	33.6
OC1(C(O)(c2ccc(-c3ccccc3)cc2)c2ccc(-c3ccccc3)cc2)CCCCC1	–	> 100	–	> 100	–	> 100	–	> 100	–	> 100	–	> 100	–	> 100	–	> 100	–	> 100	–	> 100
CCN(CC)c1ccc(/C=C\c2cc(C)c3cc(C)ccc3n2)cc1	4.98	> 100	3.2	> 100	1.66 µM	7.06	7.34	> 100	3.1	> 100	17.7	> 100	3.69	81.1	3.79	46.8	5.17	> 100	4.63	> 100
O=C1CCC(Cc2ccc(Cl)cc2Cl)C(=O)N1 (stereo unspecified)	–	> 100	–	> 100	–	> 100	–	> 100	–	> 100	–	> 100	–	> 100	–	> 100	–	> 100	–	> 100
OCc1cn(Cc2cccc(Cl)c2)c2ccccc12	15	65.8	< 0.0163	13.5	1.55 µM	17.4	< 0.0271	0.507	13.7	62	2.63	8.89	15.5	39.9	13.5	30.9	20.5	60.9	4.42	47.4
Cc1c(N=Nc2ccc([N+](=O)[O-])cc2)nc2scc(-c3ccccc3)n12	–	> 100	–	> 100	–	> 100	–	> 100	–	> 100	–	> 100	–	> 100	–	> 100	–	> 100	–	> 100
NC(=O)c1cnc(N[C@@H]2CCCC[C@@H]2N)nc1Nc1cccc(-n2nccn2)c1	3.58	14.3	2.3	7.7	2.7 µM	8.72	4.01	14.3	14.6	30.6	3.65	15.3	5.16	20.7	5.44	17.2	3.26	11.3	4.14	15.1
O=C(/C=C/c1ccc(OCC(=O)N2CCN(c3ccccc3)CC2)cc1)c1ccc(Cl)cc1	–	> 100	–	> 100	–	47.8	–	> 100	–	> 100	–	> 100	–	> 100	–	56.6	–	> 100	–	73.8
OCCCCC#Cc1ccccc1C#Cc1ccccc1	21.3	70.4	16.8	31.6	9.55 µM	22.6	30.9	> 100	17	47.3	17.7	43.6	14.1	27.1	10.8	24.1	17	41.6	10.7	26.7
CC1=C([Se]CC(OC(=O)CC[Se]c2ccccc2)C(=O)NCCCCCC(=O)OCc2ccccc2)C(=O)c2ccccc2C1=O (stereo unspecified)	2.56	6.72	2.12	6.53	2.46 µM	5.91	1.31	4.11	2.36	6.5	5.39	20.1	2.26	12.4	2.36	6.03	2.98	7.76	3.95	7.27
O=c1cccc(C#CC#C[C@H]2O[C@@H]2CO)o1	1.77	3.64	0.638	–	0.285 µM	0.531	0.624	1.85	0.927	3.37	1.73	3.57	0.664	2.01	1.07	2.84	0.37	1.71	2.66	7.18
CCCC[C@H]1C(=O)O[C@H](C)[C@H](NC(=O)c2cccc(NC=O)c2O)C(=O)O[C@@H](C)[C@@H]1OC(=O)CC(C)C	–	29.5	–	19.5	–	29.9	–	41.9	–	65.6	–	39	–	32.9	–	31.8	–	72.9	–	54.4
N[C@@H](Cc1c[nH]c2ccccc12)C(=O)NC1CCN(C(=O)c2c[nH]c3ccccc23)CC1	> 100	> 100	36.3	> 100	71 µM	> 100	64.2	> 100	> 100	> 100	> 100	> 100	> 100	> 100	> 100	> 100	> 100	> 100	90.5	> 100
C(=N\Nc1ccccn1)/c1ccccn1	0.501	> 100	0.303	> 100	–	> 82.7	0.355	> 100	0.359	> 39.7	0.588	> 100	–	> 100	0.333	2.31	0.816	> 100	0.393	–
